Test results taken from US8932646B2, “Peroxide contact lens care solution” (Bausch & Lomb Incorporated, priority 2010, dated 2015).

Key:
[1] = Osmolality after peroxide neutralization; type: physicochemical; details: disinfecting solution with 3 wt. % urea hydrogen peroxide
[2] = Peroxide neutralization rate profile in Clear Care® lens case with platinum element; type: physicochemical
Source text: All of the peroxide neutralization data described herein was obtained with a hydrogen peroxide lens case provided in a contact lens care product package sold as Clear Care® by CibaVision. The Clear Care® product packages with the included lens case were purchased in the United States in 2009-10. Each of the hydrogen peroxide neutralization profiles and rate constants (as well as calculated the half-lives) stated herein and in the claims were obtained with a Clear Care® lens case.
The line plots shown in FIG. 5B is determined from the peroxide neutralization data of FIG. 5A over the initial 60 minutes, i.e. at time of 0, 5 min, 15 min, 30 min and 60 min. […] The pseudo first-order rate constant is determined from the slope of the line plots.
The peroxide neutralization rate profiles of select disinfecting solutions were determined as follows. […] Aliquots of the solution are removed at the stated time points and the concentration of hydrogen peroxide is determined by known analytical methods.
The aliquots of solution are titrated with 0.1N potassium permanganate in the presence of an acidic aqueous solution. […] The sample is placed in the system and analyzed using a built-in hydrogen peroxide determination method. […] Once an endpoint is determined the instrument calculates the hydrogen peroxide concentration of the sample. […]

SMILES | osmolality of the solution following neutralization of the peroxide [1] | effect on the rate of peroxide neutralization ([2]; 0.1 wt. % or 1000 ppm) | effect on the rate of peroxide neutralization ([2]; 100 ppm)
NC(N)=O.OO [urea hydrogen peroxide] | about 600 mOsmol/kg | – | –
NCCS(=O)(=O)O [taurine] | – | much greater reduction in the rate of peroxide neutralization | very small effect on the rate of peroxide neutralization
